Measured values published in US20190023658A1, “SUBSTITUTED 2-DIFLUOROMETHYL-NICOTIN(THIO)CARBOXANILIDE DERIVATIVES AND THEIR USE AS FUNGICIDES” (Bayer CropScience Aktiengesellschaft, priority 2015, published 2019).

experiment: Log P by HPLC on reversed phase columns (EEC directive 79/831 Annex V.A8); format: physicochemical; conditions: [a] LC-UV, acidic range, 0.1% formic acid in water and acetonitrile as eluent
Description: Measurement of Log P values was performed according to EEC directive 79/831 Annex V.A8 by HPLC (High Performance Liquid Chromatography) on reversed phase columns with the following methods: [a] Log P value is determined by measurement of LC-UV, in an acidic range, with 0.1% formic acid in water and acetonitrile as eluent (linear gradient from 10% acetonitrile to 95% acetonitrile). [b] Log P value is determined by measurement of LC-UV, in a neutral range, with 0.001 molar ammonium acetate solution in water and acetonitrile as eluent (linear gradient from 10% acetonitrile to 95% acetonitrile). Calibration was done with straight-chain alkan2-ones (with 3 to 16 carbon atoms) with known Log P values (measurement of Log P values using retention times with linear interpolation between successive alkanones). Lambda-max-values were determined using UV-spectra from 200 nm to 400 nm and the peak values of the chromatographic signals.

Row | LogP | Structure (SMILES)
1 | 3.27^[a] | Cc1ccccc1Oc1ccccc1NC(=O)c1cccnc1C(F)F [Example I-02]
2 | 3.33^[a] | O=C(Nc1ccccc1Oc1ccc(Cl)cc1)c1cccnc1C(F)F [Example I-03]
3 | 3.59^[a] | O=C(Nc1cccc(Cl)c1Sc1ccccc1)c1cccnc1C(F)F [Example I-09]
4 | 3.21^[a] | O=C(Nc1ccccc1Sc1ccccc1)c1cccnc1C(F)F [Example I-11]
5 | 2.90^[a] | COc1ccc(Oc2ccccc2NC(=O)c2cccnc2C(F)F)cc1 [Example I-13]
6 | 3.57^[a] | O=C(Nc1ccccc1Sc1ccc(Cl)cc1)c1cccnc1C(F)F [Example I-14]
7 | 2.88^[a] | O=C(Nc1ccccc1Oc1ccccc1F)c1cccnc1C(F)F [Example I-15]
8 | 3.23^[a] | Cc1cccc(Oc2ccccc2NC(=O)c2cccnc2C(F)F)c1 [Example I-19]
9 | 2.96^[a] | O=C(Nc1ccccc1Oc1cccc(F)c1)c1cccnc1C(F)F [Example I-27]
10 | 2.96^[a] | O=C(Nc1ccccc1Oc1ccc(F)cc1)c1cccnc1C(F)F [Example I-28]
11 | 2.51^[a] | N#Cc1ccc(Oc2ccccc2NC(=O)c2cccnc2C(F)F)cc1 [Example I-29]
12 | 3.39^[a] | O=C(Nc1ccccc1Oc1ccc(Br)cc1)c1cccnc1C(F)F [Example I-30]
13 | 2.86^[a] | CON=Cc1ccc(-c2ccccc2NC(=O)c2cccnc2C(F)F)cc1 [Example I-32]
14 | 2.66^[a] | O=C(Nc1ccccc1-c1ccc(F)cc1)c1cccnc1C(F)F [Example I-34]
15 | 3.06^[a] | O=C(Nc1ccccc1-c1ccc(Cl)c(F)c1)c1cccnc1C(F)F [Example I-35]
16 | 2.71^[a] | N#Cc1c(F)cc(-c2ccccc2NC(=O)c2cccnc2C(F)F)cc1F [Example I-36]
17 | 2.80^[a] | O=C(Nc1ccccc1-c1cc(F)cc(F)c1)c1cccnc1C(F)F [Example I-38]
18 | 3.15^[a] | O=C(Nc1ccccc1-c1cccc(C(F)(F)F)c1)c1cccnc1C(F)F [Example I-39]

Row | LogP | Structure (SMILES)
19 | 2.92^[a] | O=C(Nc1ccccc1-c1ccc(Cl)cc1)c1cccnc1C(F)F [Example I-40]
20 | 3.23^[a] | CCON=Cc1ccc(-c2ccccc2NC(=O)c2cccnc2C(F)F)cc1 [Example I-41]
21 | 2.78^[a] | O=C(Nc1ccccc1-c1ccc(F)c(F)c1)c1cccnc1C(F)F [Example I-42]
22 | 3.25^[a] | O=C(Nc1ccccc1-c1ccc(C(F)(F)F)c(F)c1)c1cccnc1C(F)F [Example I-43]
23 | 2.99 | O=C(Nc1ccccc1-c1ccccc1C(F)(F)F)c1cccnc1C(F)F [Example I-44]
24 | 2.66^[a] | O=C(Nc1ccccc1-c1ccc(F)cc1F)c1cccnc1C(F)F [Example I-45]
25 | 2.73^[a] | O=C(Nc1ccc(F)cc1-c1ccc(F)cc1)c1cccnc1C(F)F [Example I-47]
26 | 2.92^[a] | O=C(Nc1ccccc1-c1cc(F)c(F)c(F)c1)c1cccnc1C(F)F [Example I-48]
27 | 2.74 | O=C(Nc1ccccc1-c1ccccc1Cl)c1cccnc1C(F)F [Example I-51]
28 | 2.96^[a] | O=C(Nc1ccccc1-c1cccc(Cl)c1)c1cccnc1C(F)F [Example I-52]
29 | 3.48^[a] | O=C(Nc1ccccc1-c1cc(Cl)cc(Cl)c1)c1cccnc1C(F)F [Example I-53]
30 | 3.35^[a] | O=C(Nc1ccccc1-c1ccc(Cl)c(Cl)c1)c1cccnc1C(F)F [Example I-54]
31 | 2.94^[a] | CSc1ccc(-c2ccccc2NC(=O)c2cccnc2C(F)F)cc1 [Example I-56]
32 | 2.55^[a] | O=C(Nc1ccccc1-c1ccccc1)c1cccnc1C(F)F [Example I-61]
33 | 4.29^[a] | CC(C)(C)C#Cc1ccc(-c2ccccc2NC(=O)c2cccnc2C(F)F)cc1 [Example I-62]
34 | 3.50^[a] | O=C(Nc1ccccc1-c1ccc(C(F)(F)F)c(Cl)c1)c1cccnc1C(F)F [Example I-63]
35 | 3.04^[a] | O=C(Nc1ccccc1-c1ccc(F)c(Cl)c1)c1cccnc1C(F)F [Example I-66]
36 | 3.70^[a] | CCON=Cc1ccc(-c2ccccc2NC(=S)c2cccnc2C(F)F)cc1 [Example I-67]

Further lines, the compound ahead of its results:

Row | Structure (SMILES) | LogP
37 | O=C(Nc1ccccc1Oc1cc(F)cc(C(F)(F)F)c1)c1cccnc1C(F)F [Example I-04] | 3.57^[a]
38 | COc1cccc(Oc2ccccc2NC(=O)c2cccnc2C(F)F)c1 [Example I-05] | 2.92^[a]
39 | O=C(Nc1ccccc1Oc1ccc(C(F)(F)F)cc1)c1cccnc1C(F)F [Example I-07] | 3.46^[a]
40 | O=C(Nc1ccccc1Oc1cccc(F)c1F)c1cccnc1C(F)F [Example I-08] | 2.98^[a]
41 | O=C(Nc1cccc(Cl)c1Oc1ccc(Cl)cc1)c1cccnc1C(F)F [Example I-10] | 3.59^[a]
42 | O=C(Nc1ccccc1Oc1cc(F)cc(F)c1)c1cccnc1C(F)F [Example I-12] | 3.11^[a]
43 | O=C(Nc1ccccc1Oc1ccc(F)c(F)c1)c1cccnc1C(F)F [Example I-16] | 3.09^[a]
44 | O=C(Nc1ccccc1Oc1ccc(Cl)cc1Cl)c1cccnc1C(F)F [Example I-17] | 3.65^[a]
45 | O=C(Nc1ccccc1Oc1cccc(C(F)(F)F)c1)c1cccnc1C(F)F [Example I-18] | 3.44^[a]
46 | O=C(Nc1ccccc1Oc1ccccc1)c1cccnc1C(F)F [Example I-20] | 2.90^[a]
47 | COc1ccccc1Oc1ccccc1NC(=O)c1cccnc1C(F)F [Example I-21] | 2.88^[a]
48 | O=C(Nc1cccc(Cl)c1Oc1ccccc1)c1cccnc1C(F)F [Example I-22] | 3.15^[a]
49 | O=C(Nc1ccccc1S(=O)(=O)c1ccccc1)c1cccnc1C(F)F [Example I-23] | 2.56^[a]
50 | O=C(Nc1cc(C(F)(F)F)ccc1Oc1ccccc1)c1cccnc1C(F)F [Example I-24] | 3.63^[a]
51 | O=C(Nc1ccccc1Oc1cc(Cl)cc(Cl)c1)c1cccnc1C(F)F [Example I-25] | 3.81^[a]
52 | O=C(Nc1ccccc1Oc1ccccc1Cl)c1cccnc1C(F)F [Example I-26] | 3.11^[a]
53 | CON=Cc1c(F)cc(-c2cccc(F)c2NC(=O)c2cccnc2C(F)F)cc1F [Example I-33] | 2.97^[a]

Row | Structure (SMILES) | LogP
54 | O=C(Nc1ccc(F)cc1-c1ccc(Cl)c(Cl)c1)c1cccnc1C(F)F [Example I-37] | 3.44^[a]
55 | CON=Cc1c(F)cc(-c2ccccc2NC(=O)c2cccnc2C(F)F)cc1F [Example I-49] | 3.17^[a]
56 | CCON=Cc1c(F)cc(-c2ccccc2NC(=O)c2cccnc2C(F)F)cc1F [Example I-50] | 3.46^[a]
57 | COC(=N)c1c(F)cc(-c2cc(F)ccc2NC(=O)c2cccnc2C(F)F)cc1F [Example I-55] | 3.16^[a]
58 | CCOc1c(F)cc(-c2ccccc2NC(=O)c2cccnc2C(F)F)cc1F [Example I-57] | 3.29^[a]
59 | CCCOc1c(F)cc(-c2ccccc2NC(=O)c2cccnc2C(F)F)cc1F [Example I-58] | 3.61^[a]
60 | CCCCOc1c(F)cc(-c2ccccc2NC(=O)c2cccnc2C(F)F)cc1F [Example I-59] | 3.99^[a]
61 | CCON=Cc1c(F)cc(-c2cccc(F)c2NC(=O)c2cccnc2C(F)F)cc1F [Example I-60] | 3.35^[a]
62 | CCON=Cc1c(F)cc(-c2cc(F)ccc2NC(=O)c2cccnc2C(F)F)cc1F [Example I-65] | 3.55^[a]
63 | COC(=N)c1c(F)cc(-c2cc(F)ccc2NC(=S)c2cccnc2C(F)F)cc1F [Example I-69] | 3.73^[a]
64 | CCON=Cc1c(F)cc(-c2cc(F)ccc2NC(=S)c2cccnc2C(F)F)cc1F [Example I-70] | 4.11^[a]
65 | N#Cc1c(F)cc(-c2ccccc2NC(=S)c2cccnc2C(F)F)cc1F [Example I-71] | 3.19^[a]
66 | CCON=Cc1c(F)cc(-c2cccc(F)c2NC(=S)c2cccnc2C(F)F)cc1F [Example I-72] | 3.99^[a]
67 | Fc1ccc(-c2ccccc2NC(=S)c2cccnc2C(F)F)cc1F [Example I-73] | 3.27^[a]
68 | COC(=N)c1c(F)cc(-c2cccc(F)c2NC(=S)c2cccnc2C(F)F)cc1F [Example I-74] | 3.60^[a]
69 | CCON=Cc1c(F)cc(-c2ccccc2NC(=S)c2cccnc2C(F)F)cc1F [Example I-75] | 3.92^[a]
70 | CON=Cc1c(F)cc(-c2ccccc2NC(=S)c2cccnc2C(F)F)cc1F [Example I-76] | 3.55^[a]

same assay, conditions: [b] LC-UV, neutral range, 0.001 molar ammonium acetate solution in water and acetonitrile as eluent

Row | LogP | Structure (SMILES)
71 | 2.93 | O=C(Nc1ccccc1-c1ccccc1C(F)(F)F)c1cccnc1C(F)F [Example I-44]
72 | 2.68 | O=C(Nc1ccccc1-c1ccccc1Cl)c1cccnc1C(F)F [Example I-51]

same assay, conditions: reversed phase HPLC column; [a] LC-UV, acidic range, 0.1% formic acid in water and acetonitrile as eluent

Row | chromatographic logP | Structure (SMILES)
73 | 3.27 | Cc1ccc(Oc2ccccc2NC(=O)c2cccnc2C(F)F)cc1 [Example I-01, 2-(difluoromethyl)-N-[2-(4-methylphenoxy)phenyl]nicotinamide]
74 | 3.94 | FC(F)c1ncccc1C(=S)Nc1ccccc1-c1ccc(C(F)(F)F)c(Cl)c1 [Example I-68, N-[3′-chloro-4′-(trifluoromethyl)biphenyl-2-yl]-2-(difluoromethyl)pyridine-3-carbothioamide]
